# Measurements taken from patent US20250144067A1, “PERSONALIZED STARVATION THERAPY FOR CANCER” (Faeth Therapeutics, Inc., priority 2021, published 2025).
# Counter-ions that a name gives are not always drawn. Peptide text beside a SMILES is read from it.
# How the values were obtained:
# [1] = tested on: NCI-H292 lung cancer cells; test: FDA drug screening, complete media vs cholesterol-free media without statin (TABLE 1); assay type: cell-based, human
# [2] = tested on: NCI-H292 lung cancer cells; test: FDA drug screening, complete media vs cholesterol-free media with simvastatin (TABLE 2); assay type: cell-based, human; settings: for Cholesterol-free media + simvastatin (0.04 μM) / Complete Media: NCI-H292 cells
# [3] = NCI-H292 cells, cholesterol-free media without statin, FDA drug library screen
# [4] = NCI-H292 cells, complete media, FDA drug library screen
# [5] = complete vs cholesterol-free media, >0 enhanced anti-cancer activity, about 0 neutral, <0 antagonist
# [6] = FDA drug library screen, cholesterol-free media with simvastatin 0.04 μM
# [7] = FDA drug library screen, complete media
# [8] = complete media vs cholesterol-free media + simvastatin (0.04 μM), >0 enhanced anti-cancer activity, about 0 neutral, <0 antagonist
# [9] = drug in cholesterol-free media with simvastatin 0.04 μM
# [10] = cholesterol-free media with simvastatin 0.04 μM, FDA drug library screen (TABLE 2)
# [11] = complete media, FDA drug library screen (TABLE 2)
# [12] = complete media minus cholesterol-free media + simvastatin (0.04 μM), >0 enhanced anti-cancer activity, about 0 neutral, <0 antagonist
# [13] = Complete minus Cholesterol-free, >0 enhanced anti-cancer activity, about 0 neutral, <0 antagonist
# [14] = cholesterol-free media with simvastatin 0.04 μM, cell growth value in FDA drug screen
# [15] = complete media, cell growth value in FDA drug screen
# [16] = complete media minus cholesterol-free media + simvastatin, >0 enhanced anti-cancer activity, about 0 neutral, <0 antagonist
# [17] = Complete minus Cholesterol-free, greater than 0 enhanced anti-cancer activity, about 0 neutral, below 0 antagonists
# [18] = NCI-H292 cells in complete media
# [19] = NCI-H292 cells, FDA drug library screen, cholesterol-free media without statin
# [20] = NCI-H292 cells, FDA drug library screen, complete media
# [21] = Complete minus Cholesterol-free, […]
# [22] = complete media minus cholesterol-free media + simvastatin, […]
# [23] = NCI-H292 cells in cholesterol-free media without statin
compound,measurement,setting,value
CN(C)C(=O)c1cc2cnc(Nc3ccc(N4CCNCC4)cn3)nc2n1C1CCCC1 [Ribociclib hydrochloride],Cholesterol-free,[1]; [3],1.177
same,Complete,[1]; [4],1.5
same,Difference,[1]; [5],0.32
same,Cholesterol-free media + simvastatin (0.04 μM),[2]; [6],0.9857
same,Complete Media,[2]; [7],0.8306
same,Difference,[2]; [8],−0.16
O=C(O)[C@@H](S)[C@@H](S)C(=O)O [Succimer],Cholesterol-free,"[1]; NCI-H292 cells, cholesterol-free media without statin",1.406
same,Complete,"[1]; NCI-H292 cells, complete media",0.9576
same,Difference,"[1]; complete vs cholesterol-free media, greater than 0 enhanced anti-cancer activity, about 0 neutral, below 0 antagonists",−0.45
same,Cholesterol-free media + simvastatin (0.04 μM),[2]; [9],1.252
same,Complete Media,[2]; drug in complete media,1.035
same,Difference,[2]; [8],−0.22
CC(C)Oc1ccc2c(=O)c(-c3ccccc3)coc2c1 [Ipriflavone],Cholesterol-free,[1]; [3],0.6871
same,Complete,[1]; [4],1.135
same,Difference,[1]; [5],0.45
same,Cholesterol-free media + simvastatin (0.04 μM),[2]; [10],1.029
same,Complete Media,[2]; [11],1.016
same,Difference,[2]; [12],−0.01
COc1ccccc1Oc1c(NS(=O)(=O)c2ccc(C(C)(C)C)cc2)nc(-c2ncccn2)nc1OCCO [Bosentan],Difference,[1]; [13],−0.05
same,Cholesterol-free,[1]; [3],1.038
same,Complete,[1]; [4],0.9904
same,Cholesterol-free media + simvastatin (0.04 μM),[2]; [10],1.122
same,Complete Media,[2]; [11],1.122
same,Difference,[2]; [12],0.00
CC1(C)O[C@@H]2C[C@H]3[C@@H]4C[C@H](F)C5=CC(=O)C=C[C@]5(C)[C@@]4(F)[C@@H](O)C[C@]3(C)[C@]2(C(=O)CO)O1 [Fluocinolone (Acetonide)],Difference,[1]; [13],0.01
same,Cholesterol-free,[1]; [3],0.5523
same,Complete,[1]; [4],0.5617
same,Cholesterol-free media + simvastatin (0.04 μM),[2]; [9],0.6444
same,Complete Media,[2]; drug in complete media,0.4689
same,Difference,[2]; [8],−0.18
CN(C)C(=N)N=C(N)N [Metformin (hydrochloride)],Cholesterol-free,[1]; [3],0.9765
same,Complete,[1]; [4],1.069
same,Difference,[1]; [5],0.09
same,Cholesterol-free media + simvastatin (0.04 μM),[2]; [14],0.8358
same,Complete Media,[2]; [15],0.8942
same,Difference,[2]; [16],0.06
CCOc1cc([C@@H](CS(C)(=O)=O)N2C(=O)c3cccc(NC(C)=O)c3C2=O)ccc1OC [Apremilast],Cholesterol-free,[1]; [3],1.127
same,Complete,[1]; [4],1.856
same,Difference,[1]; [5],0.73
same,Cholesterol-free media + simvastatin (0.04 μM),[2]; [6],1.396
same,Complete Media,[2]; [7],1.812
same,Difference,[2]; [16],0.42
CC(C)(C)NCC(O)c1ccccc1Cl (centres unmarked) [Tulobuterol (hydrochloride)],Difference,[1]; [17],−0.62
same,Complete,[1]; [18],0.9988
same,Cholesterol-free media + simvastatin (0.04 μM),[2]; [6],1.041
same,Complete Media,[2]; [7],1.605
same,Difference,[2]; [16],0.56
Gabexate (mesylate),Difference,"[1]; Complete minus Cholesterol-free, greater than 0 enhanced anti-cancer activity, about 0 neutral, below 0 antagonist",−0.15
same,Cholesterol-free,[1]; [19],1.126
same,Complete,[1]; [20],0.973
same,Cholesterol-free media + simvastatin (0.04 μM),[2]; [9],1.435
same,Complete Media,[2]; drug in complete media,1.185
same,Difference,[2]; [8],−0.25
Trimebutine (maleate),Difference,[1]; [21],−0.13
same,Cholesterol-free,[1]; [19],0.9442
same,Complete,[1]; [20],0.8142
same,Cholesterol-free media + simvastatin (0.04 μM),[2]; [6],0.6516
same,Complete Media,[2]; [7],0.9282
same,Difference,[2]; [22],0.28
Nc1cc(F)ccc1NC(=O)c1ccc(CNC(=O)/C=C/c2cccnc2)cc1 [Tucidinostat],Difference,[1]; [17],−0.51
same,Cholesterol-free,[1]; [23],1.245
same,Complete,[1]; [18],0.7308
same,Cholesterol-free media + simvastatin (0.04 μM),[2]; [14],0.5739
same,Complete Media,[2]; [15],0.6176
same,Difference,[2]; [16],0.04
COc1cc(Cc2cnc(N)nc2N)cc(OC)c1OC [Trimethoprim],Cholesterol-free,[1]; [3],0.567
same,Complete,[1]; [4],1.096
same,Difference,[1]; [5],0.53
same,Cholesterol-free media + simvastatin (0.04 μM),[2]; FDA library drug in cholesterol-free media with simvastatin 0.04 μM,1.335
same,Complete Media,[2]; FDA library drug in complete media,1.064
same,Difference,[2]; [8],−0.27
"N=C(N)NCCCC[C@@H]1NC(=O)CCSSC[C@@H](C(N)=O)NC(=O)[C@@H]2CCCN2C(=O)[C@H](Cc2c[nH]c3ccccc23)NC(=O)[C@H](CC(=O)O)NC(=O)CNC1=O [Eptifibatide] (HELM PEPTIDE1{[O=C(CCS[*:3])[*:2]].[N=C(N)NCCCC[C@H](N[*:1])C(=O)[*:2]].G.D.W.P.C.[am]}$PEPTIDE1,PEPTIDE1,1:R3-7:R3$$$V2.0)",Difference,[1]; [21],−1.01
same,Cholesterol-free,[1]; [23],1.974
same,Complete,[1]; [18],0.9607
same,Cholesterol-free media + simvastatin (0.04 μM),[2]; [6],0.8438
same,Complete Media,[2]; [7],0.9929
same,Difference,[2]; [22],0.15
CCc1nc(N)nc(N)c1-c1ccc(Cl)cc1 [Pyrimethamine],Cholesterol-free,[1]; [3],1.197
same,Complete,[1]; [4],1.426
same,Difference,[1]; [5],0.23
same,Cholesterol-free media + simvastatin (0.04 μM),[2]; [9],1.205
same,Complete Media,[2]; drug in complete media,1.02
same,Difference,[2]; [8],−0.19
